Experimental findings from patent US20240124408A1 (Sanofi, priority 2020, published 2024) are described below.

Where a name gives a salt, the structure may show the parent alone. Read-outs that look alike come from different tables or passages of the source.

The target of assay [1] is T1, human TRPM8 (Homo sapiens, UniProt Q7Z2W7).
T1 construct: expressed in transfected cells; host or cells: CHO (p658 mammalian expression vector)
The assay is described as follows: In vitro human TRPM8 fluorescence calcium flux assay (recombinant CHO cells, Fluo4-AM, FDSS6000). The following applies: recombinant CHO cells expressing human TRPM8; menthol-related EC50, normalized to 100 μM menthol. Type of assay: cell-based. In a few lines: (§1)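 CHO cells stably expressing pig or human TRPM8, loaded with 2 μM Fluo4-AM in HBSS/20 mM HEPES/0.1% BSA/2.5 mM probenecid for 1 h at RT. Intracellular calcium read kinetically for 3 min after compound addition. EC50 from sixteen-point curves, normalized to 100 μM menthol maximal response.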

Assay [2] addresses T2, pig TRPM8 (Sus scrofa, UniProt F1SM15).
T2 construct: expressed in transfected cells; host or cells: CHO (pcDNA5/FRT/TO vector; hygromycin B and blasticidin selection)
In words: In vitro pig TRPM8 fluorescence calcium flux assay (recombinant CHO cells, Fluo4-AM, FDSS6000). It counts as cell-based. The following applies: recombinant CHO cells expressing pig TRPM8; menthol-related EC50, normalized to 100 μM menthol. The gist of the method: as §1
(Calcium assays in cells follow changes in intracellular calcium, usually with a dye or a luminescent sensor.)

Assay [3] addresses T1, human TRPM8. The assay is described as follows: In vitro human TRPM8 automated patch-clamp assay (SyncroPatch 384PE, CHO cells). Type of assay: cell-based. The settings on record: CHO cells expressing human TRPM8, 28° C. In a few lines:
(§2)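 Whole-cell automated patch clamp on engineered CHO lines at 28 °C, held at −60 mV, with −80 to +80 mV ramps every 5 s; one compound concentration per well. Peak current minus pre-addition baseline was normalised to no-compound control and Emax, and EC50 was fitted; 200 μM menthol wells served as control.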
(Patch clamp records ionic current or voltage across a cell membrane.)

Assay [4] concerns the target T2, pig TRPM8. The assay is described as follows: In vitro pig TRPM8 automated patch-clamp assay (SyncroPatch 384PE, CHO cells). It counts as cell-based. The following applies: CHO cells expressing pig TRPM8, 28° C. The gist of the method: as §2
The test system of assay [5] is Male castrated German Landrace pigs. The assay is described as follows: In vivo assay: enhancement of swallowing in anesthetized pigs (manometry with pressure probe in the mouth). The following applies: Sus scrofa, anesthetized pig, dose per pig 10 mg, injected in 1 ml vehicle into the oral cavity. The method, then:
For testing the efficacy of TRPM8 agonists for enhancing swallowing, experiment using the pig model can be conducted according to assay described below. The efficacy can be compared to a vehicle control.
Male castrated German Landrace pigs (weight range of 20 to 35 kg) were used. Anesthesia was induced by injecting 20 ml of a urethane solution (20 g/100 mL dissolved in saline) into an ear vein corresponding to a dose of around […]. Anesthesia was maintained by continuous infusion of 15-20 mL per hour of the urethane solution, which was infused into an epigastric vein, and additionally by infusion of Zoletil and Rompun (500 mg Zoletil is disssovled in 10 ml of Rompun 2%, then diluted 1:10 with saline and 3-5 mL per hour of this diluted solution. Bupivacain 0.5% JENAPHARM@ was injected for additional infiltration anesthesia. Anesthesia was monitored via pulsoximetry (ear) and regular reflex testing for pain. Body temperature was monitored and maintained by an infrared lamp.
Preparation of pigs: Swallowing responses were assessed by manometry with a pressure probe placed into the mouth of the pig. The pressure probe consisted of a plastic tube (diameter 3.3 mm) to which a small balloon was attached. The tube was advanced about 12-14 cm into the mouth related to the snout. The balloon was then inflated with air to yield a pressure of 20-30mbar (vehicle). Ideally a swallowing response with 1 ml of fluid raised this pressure by 20-50mbar which was then referred to as the swallowing pressure (the increment of this pre-set pressure in the inflated balloon after swallowing) to be further enhanced by an effective test drug.
The free end of the tube was connected to a differential pressure transducer MPX Type 399/2 (Hugo Sachs Elektronik-Harvard Apparatus) and a Hugo Sachs Plugsys-amplifier system. The biological signals were recorded by a Hugo Sachs Plugsys-amplifier system and continuously stored on a computer hard disk by an on line data acquisition and analysis system (Hem 4.2 Notocord Systems, Croissy-sur-Seine, France).
A second tube referred to as injection tube was placed dorsally to the manometer tube to enable the administration of the vehicle that induced the baseline swallowing activity, or of this same vehicle containing the test compound.
Induction and assessment of swallowing activity: 0.5h after anesthesia induction 1 ml of a fluid or the vehicle for the test drug was injected into the injection tube placed into the oral cavity. The number of swallows was counted and the highest-pressure increment was registered. Challenges with vehicle were repeated at intervals of 30 min until two consecutive vehicle challenges show an about equal swallowing response. The next challenge was the vehicle loaded with the test drug (otherwise same procedure). The efficacy of a compound to enhance swallowing as shown in Table 7 was expressed as the % increase in pressure and frequency of swallowing after administration of the compound compared to the pressure and frequency recorded for its vehicle administered just before.

The mark [6] stands for this setting: frequency of swallowing compared with vehicle administered just before, read-out: % increase frequence vs vehicle.
Setting [7] is: swallowing pressure compared with vehicle administered just before, read-out: % increase pressure vs vehicle.

T2 sequence (F1SM15 1-1104): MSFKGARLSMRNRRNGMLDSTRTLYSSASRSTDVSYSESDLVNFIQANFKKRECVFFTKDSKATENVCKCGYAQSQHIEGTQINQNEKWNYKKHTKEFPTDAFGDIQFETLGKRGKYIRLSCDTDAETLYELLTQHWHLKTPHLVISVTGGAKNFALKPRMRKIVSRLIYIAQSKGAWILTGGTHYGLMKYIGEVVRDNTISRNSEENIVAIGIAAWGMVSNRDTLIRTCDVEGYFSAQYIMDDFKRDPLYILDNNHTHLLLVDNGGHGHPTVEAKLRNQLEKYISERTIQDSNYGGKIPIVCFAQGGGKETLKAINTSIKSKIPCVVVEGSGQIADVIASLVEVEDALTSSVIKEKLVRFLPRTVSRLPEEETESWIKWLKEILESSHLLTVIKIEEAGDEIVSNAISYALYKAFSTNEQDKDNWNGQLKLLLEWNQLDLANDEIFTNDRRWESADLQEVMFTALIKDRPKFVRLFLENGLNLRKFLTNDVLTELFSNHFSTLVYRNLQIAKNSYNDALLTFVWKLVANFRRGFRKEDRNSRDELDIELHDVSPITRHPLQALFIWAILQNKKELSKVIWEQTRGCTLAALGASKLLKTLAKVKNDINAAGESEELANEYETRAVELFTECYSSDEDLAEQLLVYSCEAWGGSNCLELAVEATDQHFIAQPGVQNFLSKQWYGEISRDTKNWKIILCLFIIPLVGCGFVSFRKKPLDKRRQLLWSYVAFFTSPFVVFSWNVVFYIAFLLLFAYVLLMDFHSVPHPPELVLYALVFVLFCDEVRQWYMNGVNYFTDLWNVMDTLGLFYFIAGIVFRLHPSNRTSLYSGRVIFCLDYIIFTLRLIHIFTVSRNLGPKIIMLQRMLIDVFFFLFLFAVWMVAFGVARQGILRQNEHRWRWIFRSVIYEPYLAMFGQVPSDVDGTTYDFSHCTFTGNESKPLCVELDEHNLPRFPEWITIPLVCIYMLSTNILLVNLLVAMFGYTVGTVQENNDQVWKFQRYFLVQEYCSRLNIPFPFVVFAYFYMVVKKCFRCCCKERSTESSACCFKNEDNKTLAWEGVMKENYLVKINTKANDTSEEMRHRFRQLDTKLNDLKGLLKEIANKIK
T1 sequence (Q7Z2W7 whole entry): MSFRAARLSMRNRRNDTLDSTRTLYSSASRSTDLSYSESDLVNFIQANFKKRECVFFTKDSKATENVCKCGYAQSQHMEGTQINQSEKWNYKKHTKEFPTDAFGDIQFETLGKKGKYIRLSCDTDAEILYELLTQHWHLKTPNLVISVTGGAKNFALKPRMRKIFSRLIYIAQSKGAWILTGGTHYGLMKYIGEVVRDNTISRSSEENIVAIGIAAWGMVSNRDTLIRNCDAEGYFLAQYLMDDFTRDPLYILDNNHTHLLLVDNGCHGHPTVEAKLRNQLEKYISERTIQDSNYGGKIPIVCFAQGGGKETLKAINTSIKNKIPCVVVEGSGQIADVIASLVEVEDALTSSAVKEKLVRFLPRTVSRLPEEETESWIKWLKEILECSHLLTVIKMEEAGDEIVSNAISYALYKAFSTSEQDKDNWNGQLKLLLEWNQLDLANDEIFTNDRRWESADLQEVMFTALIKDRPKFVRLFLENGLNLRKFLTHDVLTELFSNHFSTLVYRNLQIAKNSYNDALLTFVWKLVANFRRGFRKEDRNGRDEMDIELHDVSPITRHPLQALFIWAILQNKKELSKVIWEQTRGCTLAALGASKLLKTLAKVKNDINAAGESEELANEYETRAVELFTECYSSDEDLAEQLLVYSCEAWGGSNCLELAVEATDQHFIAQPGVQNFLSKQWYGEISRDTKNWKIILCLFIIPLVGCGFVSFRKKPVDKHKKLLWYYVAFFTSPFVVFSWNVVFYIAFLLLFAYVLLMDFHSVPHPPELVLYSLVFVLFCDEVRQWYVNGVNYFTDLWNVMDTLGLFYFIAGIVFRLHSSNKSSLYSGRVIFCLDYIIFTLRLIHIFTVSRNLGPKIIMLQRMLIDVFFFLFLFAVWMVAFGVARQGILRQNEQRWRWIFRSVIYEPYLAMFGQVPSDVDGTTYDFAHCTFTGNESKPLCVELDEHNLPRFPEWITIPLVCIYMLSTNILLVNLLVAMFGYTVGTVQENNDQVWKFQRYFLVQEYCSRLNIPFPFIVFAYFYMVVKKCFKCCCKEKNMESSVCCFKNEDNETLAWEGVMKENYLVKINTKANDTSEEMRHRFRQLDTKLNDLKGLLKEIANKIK

In the case of `CC(C)[C@@H]1CC[C@@H](C)C[C@@]1(O)C(=O)NCCc1ccccc1CCO` [Example 52, (1S,2S,5R)-1-hydroxy-N-(2-(2-hydroxyethyl)phenethyl)-2-isopropyl-5-methylcyclohexane-1-carboxamide], the EC50 stood at 26 nM on human TRPM8 [1], 24.3 nM on pig TRPM8 [2], 1300 nM on human TRPM8 [3] and 864 nM at pig TRPM8 [4]. The change in vivo at 10 mg in assay [5] (setting [6]) turned out to be 172%; in assay [5] (setting [7]), 202%.
Regarding `CC(C)[C@@H]1CC[C@@H](C)C[C@@]1(O)C(=O)NCCc1ccccc1OCC(N)=O` [Example 81, (1S,2S,5R)—N-(2-(2-amino-2-oxoethoxy)phenethyl)-1-hydroxy-2-isopropyl-5-methyl cyclohexane-1-carboxamide], the 50% effective concentration (EC50) at human TRPM8 [1] was 27.7 nM; at pig TRPM8 [2], 25.2 nM; on human TRPM8 [3] it was 1500 nM; on pig TRPM8 [4], 4250 nM. The change in vivo at 10 mg in assay [5] (setting [6]) turned out to be 247%; in assay [5] (setting [7]) it was 315%.
Turning to `CC(C)[C@@H]1CC[C@@H](C)C[C@@]1(O)C(=O)NCCc1cccc(O)c1` [Example 40, (1S,2S,5R)-1-hydroxy-N-(3-hydroxyphenethyl)-2-isopropyl-5-methylcyclohexane-1-carboxamide], the concentration for a half-maximal effect (EC50) on human TRPM8 [1] was determined as 2.5 nM; at pig TRPM8 [2], 1.4 nM; on human TRPM8 [3], 1440 nM; on pig TRPM8 [4], 1760 nM. The change in vivo at 10 mg was 62% in assay [5] (setting [6]) and 393% in assay [5] (setting [7]).
Take `CC(C)[C@@H]1CC[C@@H](C)C[C@@]1(O)C(=O)NCC(F)(F)c1ccccc1` [Example 4, (1S,2S,5R)—N-(2,2-difluoro-2-phenylethyl)-1-hydroxy-2-isopropyl-5-methylcyclohexane-1-carboxamide]: the EC50 on human TRPM8 [1] was determined as 2.8 nM; on pig TRPM8 [2] it was 1.2 nM; at human TRPM8 [3] it was 541 nM; on pig TRPM8 [4], 467 nM. The values for the change in vivo at 10 mg in assay [5] (setting [6]) and in assay [5] (setting [7]) were 417% and 221%, respectively.
On to `CC(C)[C@@H]1CC[C@@H](C)C[C@@]1(O)C(=O)NCCc1ccccc1OC[C@@H](O)CO` [Example 25, (1S,2S,5R)—N-(2-((S)-2,3-dihydroxypropoxy)phenethyl)-1-hydroxy-2-isopropyl-5-methylcyclohexane-1-carboxamide], for which the EC50 on human TRPM8 [1] came out at 14.5 nM; at pig TRPM8 [2], 32.8 nM; at human TRPM8 [3] it was 2150 nM; at pig TRPM8 [4], 3400 nM. In addition, the figures for the change in vivo at 10 mg in assay [5] (setting [6]) and in assay [5] (setting [7]) were 173% and 168%, respectively.
Take `CC(C)[C@@H]1CC[C@@H](C)C[C@@]1(O)C(=O)NCCc1ccccc1OCCCO` [Example 80, (1S,2S,5R)-1-hydroxy-N-(2-(3-hydroxypropoxy)phenethyl)-2-isopropyl-5-methylcyclohexane-1-carboxamide]: the EC50 on human TRPM8 [1] was determined as 40.2 nM; at pig TRPM8 [2], 82 nM; at human TRPM8 [3] it was 1800 nM; on pig TRPM8 [4] it was 3970 nM. The figures for the change in vivo at 10 mg in assay [5] (setting [6]) and in assay [5] (setting [7]) were 91% and 86%, respectively.
`CC(C)[C@@H]1CC[C@@H](C)C[C@@]1(O)C(=O)NCCc1ccccc1` [Example 51, (1S,2S,5R)-1-hydroxy-2-isopropyl-5-methyl-N-phenethylcyclohexane-1-carboxamide]: the EC50 on human TRPM8 [1] amounted to 7.8 nM; on pig TRPM8 [2], 4.5 nM; on human TRPM8 [3], 3030 nM; at pig TRPM8 [4], 823 nM. For the same molecule, the change in vivo at 10 mg in assay [5] (setting [6]) amounted to 250%; in assay [5] (setting [7]) it was 186%.
On to `CC(C)[C@@H]1CC[C@@H](C)C[C@@]1(O)C(=O)NC[C@@H](N)c1ccccc1` [Example 50, (1S,2S,5R)—N-((2S)-amino-2-phenylethyl)-1-hydroxy-2-isopropyl-5-methylcyclohexane-1-carboxamide], for which the concentration for a half-maximal effect (EC50) stood at 0.4 nM at human TRPM8 [1], 0.4 nM on pig TRPM8 [2], 140 nM on human TRPM8 [3] and 71 nM on pig TRPM8 [4]. Also, the results for the change in vivo at 10 mg in assay [5] (setting [6]) and in assay [5] (setting [7]) were 100% and 63%, respectively.
On to `CC(C)[C@@H]1CC[C@@H](C)C[C@@]1(O)C(=O)NC[C@@H](NC(=O)[C@H](C)N)c1ccccc1` [Example 63, (1S,2S,5R)—N—((S)-2-((S)-2-aminopropanamido)-2-phenylethyl)-1-hydroxy-2-isopropyl-5-methylcyclohexane-1-carboxamide], for which the EC50 turned out to be 2.6 nM at human TRPM8 [1], 5.7 nM on pig TRPM8 [2], 53 nM on human TRPM8 [3] and 57 nM on pig TRPM8 [4]. The change in vivo at 10 mg came to 191% in assay [5] (setting [6]) and 186% in assay [5] (setting [7]).
Regarding `CC(C)[C@@H]1CC[C@@H](C)C[C@@]1(O)C(=O)NCCc1cccc(C(=O)OCCO)c1` [Example 21, 2-hydroxyethyl 3-(2-((1S,2S,5R)-1-hydroxy-2-isopropyl-5-methylcyclohexane-1-carboxamido)ethyl) benzoate], the EC50 turned out to be 65.1 nM on human TRPM8 [1], 56.3 nM on pig TRPM8 [2], 5500 nM on human TRPM8 [3] and 5290 nM on pig TRPM8 [4]. Moreover, the values for the change in vivo at 10 mg in assay [5] (setting [6]) and in assay [5] (setting [7]) were 171% and 181%, respectively.
As to `CC(C)[C@@H]1CC[C@@H](C)C[C@@]1(O)C(=O)NC[C@@H](O)c1ccccc1` [Example 1, (1S,2S,5R)-1-hydroxy-N—((S)-2-hydroxy-2-phenylethyl)-2-isopropyl-5-methylcyclohexane-1-carboxamide], the EC50 stood at 1.7 nM at human TRPM8 [1], 1.2 nM on pig TRPM8 [2], 810 nM on human TRPM8 [3] and 733 nM at pig TRPM8 [4]. Besides, the change in vivo at 10 mg worked out at 231% in assay [5] (setting [6]) and 274% in assay [5] (setting [7]).
Regarding `CC(C)[C@@H]1CC[C@@H](C)C[C@@]1(O)C(=O)NCCc1ccccc1C(=O)OCCN` [Example 13, 2-aminoethyl 2-(2-((1S,2S,5R)-1-hydroxy-2-isopropyl-5-methylcyclohexane-1-carboxamido)ethyl) benzoate hydrochloride], the EC50 amounted to 1 nM at human TRPM8 [1], 2 nM at pig TRPM8 [2], 150 nM on human TRPM8 [3] and 782 nM at pig TRPM8 [4]. Moreover, the change in vivo at 10 mg in assay [5] (setting [6]) came to 100%; in assay [5] (setting [7]) it was 53%.
On to `CC(C)OC(=O)CNC(=O)[C@]1(O)C[C@H](C)CC[C@H]1C(C)C` [Example 54, isopropyl ((1S,2S,5R)-1-hydroxy-2-isopropyl-5-methylcyclohexane-1-carbonyl)glycinate], for which the EC50 at human TRPM8 [1] amounted to 226 nM; at pig TRPM8 [2], 91.1 nM; at human TRPM8 [3], 5650 nM; on pig TRPM8 [4] it was 8730 nM. Besides, the change in vivo at 10 mg in assay [5] (setting [6]) was found to be 75%; in assay [5] (setting [7]) it was 64%.

By EC50 is commonly meant the midpoint of the concentration-response curve.
